Measurements as given in patent US4956389A, “Compounds having calcium blocking activity” (priority 1982, dated 1990).
Where “and” joins values, the source holds several entries; their conditions need not be identical. Identical values can stand only once. Like-named read-outs stand apart in the source and are kept apart here.

Assays:
aorta of rabbits = test: Antagonistic activity on the contractions produced by arachidonic acid on the aorta of rabbits, study in vitro; parameters: species or system rabbit
Description: The study has been carried out by comparison with Nicardipine using autologous blood as the perfusion liquid. The addition of 0.1 mg of arachidonate to the liquid induces an isometric contraction of the aorta which is registered by a transducer. […] This phenomenon is shown by the relaxation which follows the addition of arachidonate to the perfusion blood. This effect may be noted with 0.1 mg/kg of YS 035 and 1 mg/kg of Nicardipine.

[1] = tested on: kidney cells in newborn hamsters; test: Inhibition of Ca2+-uptake in kidney cells in newborn hamsters; format: cell-based, hamster
Description: Cells of kidneys of newborn hamsters have been washed and then resuspended several times in concentration of 5·10^6 /cc in the medium of the following composition:
After 15 minutes of preincubation at 30° C., the reaction was made to begin by addition to the medium of ^45 CaCl2 1 mM (0.1μCi/cc). The concentrations at 0 period of time were the concentrations determined two minutes after the addition. The other controls were carried out after 5 minutes, 10 minutes, and 20 minutes. The determination of [Ca^2+ ] was carried out as in the preceding experiment.

[2] = tested on: mitochondria of liver of rats; test: Inhibition of Ca2+-uptake in mitochondria of liver of rats; format: biochemical, rat; details: 250 μM
Description: The mitochondria prepared according to classical methods are diluted to a concentration of 1.5 mg/cc in a medium of incubation which has the following composition:
After a period of 15 minutes of preincubation at 20° C. there was added ^45 CaCl2 (50 n mol/mg prot.).
In a manner analogous to the preceding experiments, the concentrations determined after two minutes were called the concentration at 0 period of time. The other controls were determined after 5 minutes, after 10 minutes and after 15 minutes. For the determination of Ca^2+, the experiment was carried out in a manner analogous to the preceding experiments.
The results are reported in Table 3 as the quantity of Ca transferred per mg of protein

calcium entry = test: Calcium antagonistic activity (general statement); details: compared with nifedipine
[3] = tested on: synaptosomes of the brain of rats; test: Inhibition of the Ca2+-uptake in synaptosomes of the brain of rats; format: biochemical, rat; details: 250 μM
Description: The synaptosomes have been prepared from an homogenate of the brain of rats by centrifugation in the gradient of Filcoll at 23,500 rpm for a period of 30 minutes and diluted to 1.5 mg/cc in the medium constituted by:
After 15 minutes of preincubation, ^45 CaCl2, final concentration 1 mM (0.2μCi/cc is added to the medium).
The first determination has been carried out two minutes after the addition. […] After each period, the reaction has been stopped by centrifugation and the radioactivity has been determined in the supernatant as well as in the pellet. The latter had been denatured previously with PCA, neutralized and subsequently centrifuged.

[4] = tested on: mitochondria of liver of rats; test: Study on the Ca2+-efflux in mitochondria of liver of rats; format: biochemical, rat; details: 250 μM
Excerpt: The mitochondria of liver of rats prepared as in the preceding experiment were "charged" with Ca and subsequently, taken in a medium deprived of this ion. In the presence of an uncoupling agent or "Ruthenium Red", there is a flow of Ca^2+ ion from the mitochondria into the medium.
The results reported in Table 4 are expressed as the quantity of Ca transferred from the mitochondria per mg of protein per minute.

portions of the aorta = test: Contraction of aorta portions by arachidonic acid after oral administration to rabbits (studies in vivo); parameters: species or system rabbit
Description: Both substances YS 035 and Nicardipine have been administered orally for a period of three consecutive days to rabbits in such a manner that the last administration of each substance was carried out one hour prior to killing the animals. The portions of the aorta had then been incubated either in PRP as well as in the Krebs-Henseleit liquid.

rats = test: Anti-arrythmic and antiischemic effect in rats (left coronary artery tied); format: in vivo, rat
Description: The left coronary artery, when it is tied, induces in the anesthetized rats a precocious arrythmia (30 minutes) particularly ectopic beats, ventricular tachycardia (VT), ventricular fibrillation (VF) according to the methods of Selye 1960, Clark 1980 and Parratt 1982.

[5] = Acute toxicity (Litchfield and Wilcoxon); details: rat, in vivo, male rats, read-out: toxicity DL50
Excerpt: The acute toxicity has been determined by the oral route, by the venous route in male rats according to the method of Litchfield and Wilcoxon (J. Pharm. Exp. Therap., (1949), 96, p. 99).

COc1ccc(CCN(C)CCc2ccc(OC)c(OC)c2)cc1OC [YS 035, N-methyl-N-bis-(3,4-dimethoxy-phenyl-ethyl)amine]
Contraction of the first portion of the aorta (aorta of rabbits; N = 4): 48 ± 6.7 mm
inhibition at 0.01 mg/kg (aorta of rabbits; Oryctolagus cuniculus, dose 0.01 mg·Kg^-1, read-out: Contraction of the second and third portion of the aorta, % Variation): 42 ± 31%
inhibition at 0.1 mg/kg (aorta of rabbits; Oryctolagus cuniculus, dose 0.1 mg·Kg^-1, second and third portion, read-out: % Variation, small contractions observed occasionally prior to relaxation (value in brackets)): 60 ± 29.3%
inhibition at 1 mg/kg (aorta of rabbits; Oryctolagus cuniculus, dose 1.0 mg·Kg^-1, read-out: Contraction of the second and third portion of the aorta, % Variation): 132 ± 16.1%
inhibition at 1 mg/kg (aorta of rabbits; Oryctolagus cuniculus, line without dose, below dose 1.0 mg·Kg^-1, read-out: Contraction of the second and third portion of the aorta, % Variation): 16%
minimal effective dose (aorta of rabbits; Oryctolagus cuniculus, autologous blood perfusion, 0.1 mg arachidonate, read-out: dose at which relaxation following the addition of arachidonate is noted): 0.1 mg/kg
inhibitory effect on the contraction produced by the arachidonate (in words) (aorta of rabbits; YS 035 compared with Nicardipine): comparable
Ca2+-uptake ([1]; 250 μM, 30° C., control 11.9): 7.5 n g ions/mg prot/15'
inhibitory action on the uptake of Ca (in words) ([1]; 250 μM, compared with nifedipine): superior to the activity of nifedipine
percent change in Ca2+-uptake versus control at 250 µM ([1]; Mesocricetus auratus, 0.25 h, 15 min): -36.9%
Ca2+-uptake ([2]; 20° C., control 14.3): 11.0 n g ions/mg prot.
inhibitory activity on the uptake of Ca (in words) ([2]; compared with nifedipine): slightly inferior to the activity of nifedipine
calcium antagonistic activity (in words) (calcium entry): strong calcium antagonistic activity, comparable to nifedipine
inhibitory activity on the calcium uptake (in words) [3]: comparable to the activity exhibited by Nifedipine
Ca2+-uptake ([3]; 45CaCl2 1 mM, control 80 ± 7): 47 ± 4 n g ions/mg prot/15 min
uncoupling action (in words) [4]: does not exhibit this action
Ca2+-efflux induced by Ruthenium red ([4]; control 0.7): 0.6 n g ions/min. mg/prot
Ca2+-efflux induced by uncoupling agent ([4]; control 8.3): 5.4 n g ions/min. mg/prot
Amplitude of contraction, medium Krebs, individual values (portions of the aorta; 10 mg·Kg^-1 P.O., Krebs, controls 12 ± 2.3): -6 mm and +7 mm
Amplitude of contraction, PRP, individual values (portions of the aorta; 10 mg·Kg^-1 P.O., PRP, controls 30 ± 8.0): +28 mm
site of action (in words) (portions of the aorta; aortic endothelial level, particularly PGI2): act directly on the synthesis of prostaglandin
% Death (rats; 0.156 mg/Kg I.V.): 20%
Latent Time Death (rats; 0.156 mg/Kg I.V.): 26 min
Latent time (rats; 0.156 mg/Kg I.V.): 22
No. ectopic beats (rats; 0.156 mg/Kg I.V.): 907
VF (rats; 0.156 mg/Kg I.V.): 4 s
VF (%) (rats; 0.156 mg/Kg I.V.): 40%
VT (rats; 0.156 mg/Kg I.V.): 34 s
% Death (rats; 0.625 mg/Kg I.V.): 0%
Latent Time Death (rats; 0.625 mg/Kg I.V.): > 30 min
Latent time (rats; 0.625 mg/Kg I.V.): 30
No. ectopic beats (rats; 0.625 mg/Kg I.V.): 646
VF (rats; 0.625 mg/Kg I.V.): 0 s
VF (%) (rats; 0.625 mg/Kg I.V.): 0%
VT (rats; 0.625 mg/Kg I.V.): 9 s
% Death (rats; 1.25 mg/Kg I.V.): 0%
Latent Time Death (rats; 1.25 mg/Kg I.V.): > 30 min
Latent time (rats; 1.25 mg/Kg I.V.): 30
No. ectopic beats (rats; 1.25 mg/Kg I.V.): 684
VF (rats; 1.25 mg/Kg I.V.): 0 s
VF (%) (rats; 1.25 mg/Kg I.V.): 0%
VT (rats; 1.25 mg/Kg I.V.): 29 s
% Death (rats; 2.5 mg/Kg I.V.): 0%
Latent Time Death (rats; 2.5 mg/Kg I.V.): > 30 min
Latent time (rats; 2.5 mg/Kg I.V.): 26
No. ectopic beats (rats; 2.5 mg/Kg I.V.): 725
VF (rats; 2.5 mg/Kg I.V.): 9 s
VF (%) (rats; 2.5 mg/Kg I.V.): 20%
VT (rats; 2.5 mg/Kg I.V.): 34 s
% Death (rats; 5 mg/Kg I.V.): 0%
Latent Time Death (rats; 5 mg/Kg I.V.): > 30 min
Latent time (rats; 5 mg/Kg I.V.): 21
No. ectopic beats (rats; 5 mg/Kg I.V.): 1287
VF (rats; 5 mg/Kg I.V.): 5 s
VF (%) (rats; 5 mg/Kg I.V.): 50%
VT (rats; 5 mg/Kg I.V.): 62 s
% Death (rats; 10 mg/Kg I.V.): 0%
Latent Time Death (rats; 10 mg/Kg I.V.): > 30 min
Latent time (rats; 10 mg/Kg I.V.): 30
No. ectopic beats (rats; 10 mg/Kg I.V.): 474
VF (rats; 10 mg/Kg I.V.): 0 s
VF (%) (rats; 10 mg/Kg I.V.): 0%
VT (rats; 10 mg/Kg I.V.): 9 s
% Death (rats; 20 mg/Kg I.V.): 0%
Latent Time Death (rats; 20 mg/Kg I.V.): > 30 min
Latent time (rats; 20 mg/Kg I.V.): 20
No. ectopic beats (rats; 20 mg/Kg I.V.): 777
VF (rats; 20 mg/Kg I.V.): 10 s
VF (%) (rats; 20 mg/Kg I.V.): 50%
VT (rats; 20 mg/Kg I.V.): 22 s
dose-effect relationship (in words) (rats; above 10 mg/kg, endovenous): there is a regression of the results
onset of VF, VT and death (in words) (rats; endovenous, between 0.625 and 10 mg/kg): prevents the onset of the most serious arrythmia such as VF and VT and the death
LD50 ([5]; iv, venous route): 19 mg/kg
LD50 ([5]; oral route): 178 mg/kg
